Source: patent US20260158014A1, “METHODS OF ADMINISTERING VOXELOTOR” (Global Blood Therapeutics, Inc., priority 2021, published 2026)

Tests used:
CYP3A4 = CYP3A4 (Homo sapiens, UniProt P08684); assay: Clinical probe-substrate DDI study: midazolam; settings: healthy subjects
Procedure: The effect of voxelotor on the pharmacokinetics (PK) of a single dose of caffeine, warfarin sodium, omeprazole, and midazolam hydrochloride, which are probe substrates for cytochrome P450 (CYP)1A2, CYP2C9, CYP2C19, and CYP3A4, respectively, were studied in healthy subjects. During Period 1, subjects received a single dose of caffeine 100 mg, warfarin sodium 10 mg+vitamin K 10 mg, omeprazole 20 mg, and midazolam hydrochloride 2 mg on Day 1. During Period 2, subjects received voxelotor 900 mg QD on Days 1 and 2 followed by 600 mg QD on Day 3, a single dose of caffeine 100 mg, warfarin sodium 10 mg+vitamin K 10 mg, omeprazole 20 mg, and midazolam hydrochloride 2 mg on Day 4, and voxelotor 600 mg QD on Days 4 through 7.
Whole blood and plasma concentrations of voxelotor and plasma concentrations of caffeine, paraxanthine, S-warfarin, omeprazole, 5-hydroxyomeprazole, midazolam, and 1-hydroxymidazolam were determined using validated assays.

P-gp = P-gp (Homo sapiens, UniProt P08183); assay: Clinical DDI: voxelotor on digoxin; settings: in vivo
[1] = voxelotor 900 mg QD days 1-2, then 600 mg QD, midazolam hydrochloride 2 mg single dose

CYP3A4, sequence (P08684 whole entry): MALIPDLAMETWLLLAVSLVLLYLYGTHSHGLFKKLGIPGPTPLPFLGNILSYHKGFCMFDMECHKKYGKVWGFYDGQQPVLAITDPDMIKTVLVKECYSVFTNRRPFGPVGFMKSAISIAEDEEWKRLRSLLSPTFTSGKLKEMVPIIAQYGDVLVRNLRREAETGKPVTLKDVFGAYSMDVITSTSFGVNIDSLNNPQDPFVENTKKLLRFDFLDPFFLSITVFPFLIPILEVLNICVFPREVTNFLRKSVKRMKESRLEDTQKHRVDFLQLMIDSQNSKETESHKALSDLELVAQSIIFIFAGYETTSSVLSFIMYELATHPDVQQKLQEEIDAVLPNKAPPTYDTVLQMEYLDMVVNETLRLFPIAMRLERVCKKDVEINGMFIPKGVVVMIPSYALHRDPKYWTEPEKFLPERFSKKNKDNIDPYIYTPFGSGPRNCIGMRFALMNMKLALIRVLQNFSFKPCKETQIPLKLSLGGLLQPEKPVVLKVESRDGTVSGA
P-gp, sequence (P08183 whole entry): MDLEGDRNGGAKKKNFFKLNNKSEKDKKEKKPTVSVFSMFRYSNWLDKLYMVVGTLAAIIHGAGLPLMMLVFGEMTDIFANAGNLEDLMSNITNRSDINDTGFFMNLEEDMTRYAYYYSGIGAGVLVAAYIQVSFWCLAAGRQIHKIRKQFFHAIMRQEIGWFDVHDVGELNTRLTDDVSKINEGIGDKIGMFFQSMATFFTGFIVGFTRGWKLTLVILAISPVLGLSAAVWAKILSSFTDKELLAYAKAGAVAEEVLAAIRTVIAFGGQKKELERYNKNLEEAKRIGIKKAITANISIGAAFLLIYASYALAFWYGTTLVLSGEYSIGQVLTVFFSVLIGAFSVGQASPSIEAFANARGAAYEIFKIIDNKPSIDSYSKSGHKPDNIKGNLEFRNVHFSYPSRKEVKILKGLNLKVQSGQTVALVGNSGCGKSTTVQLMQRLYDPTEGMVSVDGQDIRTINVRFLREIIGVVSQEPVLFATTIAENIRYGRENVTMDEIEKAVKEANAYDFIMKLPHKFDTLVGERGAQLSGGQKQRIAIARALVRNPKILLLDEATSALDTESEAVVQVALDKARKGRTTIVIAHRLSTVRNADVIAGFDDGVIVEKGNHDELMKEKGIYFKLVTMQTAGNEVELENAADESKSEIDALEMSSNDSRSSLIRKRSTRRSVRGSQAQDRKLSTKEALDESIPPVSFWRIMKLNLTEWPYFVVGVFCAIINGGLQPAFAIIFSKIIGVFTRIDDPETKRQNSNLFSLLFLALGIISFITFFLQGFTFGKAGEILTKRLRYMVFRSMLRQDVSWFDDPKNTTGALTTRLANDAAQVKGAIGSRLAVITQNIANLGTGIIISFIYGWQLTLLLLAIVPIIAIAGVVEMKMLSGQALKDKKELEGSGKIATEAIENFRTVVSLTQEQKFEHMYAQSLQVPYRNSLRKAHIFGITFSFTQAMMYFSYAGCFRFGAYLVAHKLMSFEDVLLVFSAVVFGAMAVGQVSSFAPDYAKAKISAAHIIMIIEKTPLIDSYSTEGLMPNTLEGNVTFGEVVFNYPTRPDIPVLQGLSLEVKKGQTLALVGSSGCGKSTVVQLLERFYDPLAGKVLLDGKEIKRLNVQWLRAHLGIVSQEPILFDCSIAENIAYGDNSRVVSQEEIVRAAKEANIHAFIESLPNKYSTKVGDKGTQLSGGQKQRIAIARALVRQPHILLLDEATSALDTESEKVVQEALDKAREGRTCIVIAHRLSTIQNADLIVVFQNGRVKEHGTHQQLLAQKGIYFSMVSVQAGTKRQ

## Cc1ncc2n1-c1ccc(Cl)cc1C(c1ccccc1F)=NC2 [midazolam]
CYP3A4
  observed exposure increase of midazolam with voxelotor: 1.6 fold
CYP3A4; [1]
  increase of overall exposure of midazolam in the presence of voxelotor: 63%

## C[C@H]1O[C@@H](O[C@H]2[C@@H](O)C[C@H](O[C@H]3[C@@H](O)C[C@H](O[C@H]4CC[C@@]5(C)[C@H](CC[C@@H]6[C@@H]5C[C@@H](O)[C@]5(C)[C@@H](C7=CC(=O)OC7)CC[C@]65O)C4)O[C@@H]3C)O[C@@H]2C)C[C@H](O)[C@@H]1O [digoxin]
P-gp
  effect of concomitant OXBRYTA on digoxin (P-gp substrate): did not alter digoxin to a clinically relevant extent

## OCc1ncc2n1-c1ccc(Cl)cc1C(c1ccccc1F)=NC2 [1′-hydroxy-midazolam]
CYP3A4; [1]
  increase of overall exposure of midazolam metabolite in the presence of voxelotor: 75%
